Like-named read-outs stand apart in the source and are kept apart here.

The target of test [1] is T1, Thioredoxin reductase 1 (TrxR1) (Homo sapiens, UniProt Q16881).
T1 construct: gene TXNRD1
The test is described as follows: biochemical.

Test [2] deals with T1, Thioredoxin reductase 1 (TrxR1).

T1 sequence (Q16881 whole entry): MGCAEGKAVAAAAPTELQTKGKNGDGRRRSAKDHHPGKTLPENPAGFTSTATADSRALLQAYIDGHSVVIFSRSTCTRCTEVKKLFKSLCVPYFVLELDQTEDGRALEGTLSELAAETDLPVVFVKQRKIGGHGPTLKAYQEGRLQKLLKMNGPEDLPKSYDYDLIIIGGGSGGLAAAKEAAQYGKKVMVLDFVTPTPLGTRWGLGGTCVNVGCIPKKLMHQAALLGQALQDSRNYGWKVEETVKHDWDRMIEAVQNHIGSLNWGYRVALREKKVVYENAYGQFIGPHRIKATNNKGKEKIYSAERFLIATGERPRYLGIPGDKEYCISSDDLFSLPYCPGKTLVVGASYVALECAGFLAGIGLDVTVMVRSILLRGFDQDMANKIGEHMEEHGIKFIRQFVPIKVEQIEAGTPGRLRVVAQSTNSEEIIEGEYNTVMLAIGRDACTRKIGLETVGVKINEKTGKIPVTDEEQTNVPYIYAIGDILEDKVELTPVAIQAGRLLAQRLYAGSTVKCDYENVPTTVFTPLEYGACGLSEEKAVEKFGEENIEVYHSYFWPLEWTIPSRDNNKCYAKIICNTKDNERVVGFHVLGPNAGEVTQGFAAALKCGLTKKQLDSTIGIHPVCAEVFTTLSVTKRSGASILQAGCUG

The term Kd denotes the free concentration of one partner at which half of the binding sites on the other are occupied at equilibrium, for simple one-to-one binding. In test [1], `O=c1c2ccccc2[se]n1CCCCn1[se]c2ccccc2c1=O` [BS1801, 2,2'-(butane-1,4-diyl)bis(benzo[d] [1,2]selenazol-3(2H)-one)] returned a Kd of 2.44 µM.

Compound `CC[P](CC)(CC)=[Au][S][C@@H]1O[C@H](COC(C)=O)[C@@H](OC(C)=O)[C@H](OC(C)=O)[C@H]1OC(C)=O` [auranofin] registered a Kd in test [2] of 5.07 µM.
